For this test, the system named is nude mice, LX-1 lung xenograft intrarenal, tumor weight T/C. Briefly: NCI In Vivo Anticancer Drug Screen. Data for tumor model Human Lung LX-1 Xenograft (intrarenal inoculation) in NU/NU Swiss (nude) mice. To be noted: endpoint: mean tumor weight change, higher = larger tumour. The method in brief:
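Compound-treated mice carrying transplanted tumors were compared with vehicle-treated controls. Tumor size was the measured end point, and the value is the treated-group measurement divided by the control-group measurement (T/C).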
Background: Xenograft models place foreign cells or tissue in a host animal.

Setting [1] is: dose: 150.0 mg/kg/injection, schedule: Q04DX003 (sc), vehicle: saline.
Setting [2] is: dose: 300.0 mg/kg/injection, schedule: Q04DX003 (sc), vehicle: saline with Tween-80.
Setting [3] is: dose: 600.0 mg/kg/injection, schedule: Q04DX003 (sc), vehicle: saline with Tween-80.
Where [4] appears, read: dose: 1200.0 mg/kg/injection, schedule: Q04DX003 (sc), vehicle: saline with Tween-80.
[5] abbreviates: dose: 2400.0 mg/kg/injection, schedule: Q04DX003 (sc), vehicle: saline with Tween-80.
Setting [6] is: dose: 100.0 mg/kg/injection, schedule: Q04DX003 (sc), vehicle: saline with Tween-80.
Where [7] appears, read: dose: 200.0 mg/kg/injection, schedule: Q04DX003 (sc), vehicle: saline with Tween-80.

In PubChem BioAssay AID264 (DTP/NCI, 2004) one finds T/C data, which are given here for 17 compounds.

Several values for one entry are separate records, joined by “and”; a condition that tells them apart may be missing. Equal values may be shown once. Results filed as inconclusive are left out.

For `COc1cc(NCCCCCCCNC(C)C)c2nccc(C)c2c1`, the T/C (dose: 37.5 mg/kg/injection, schedule: Q04DX003 (sc), vehicle: saline) was 105 % of control and the T/C under setting [1] is 87 % of control.
With `Cc1ccc2nc(-c3ccc4nc(-c5ccc(N=Nc6ccc(-c7nc8ccc(-c9nc%10ccc(C)c(S(=O)(=O)O)c%10s9)cc8s7)cc6)cc5)sc4c3)sc2c1S(=O)(=O)O`, the T/C by setting is: (dose: 100.0 mg/kg/injection, schedule: Q04DX003 (sc), vehicle: suspension in saline) 76 % of control; (dose: 400.0 mg/kg/injection, schedule: Q04DX003 (sc), vehicle: suspension in saline) 64 % of control; (dose: 800.0 mg/kg/injection, schedule: Q04DX003 (sc), vehicle: suspension in saline) 101 % of control.
Turning to `O=C(CO)c1ccc([N+](=O)[O-])cc1`, the T/C runs as follows: (dose: 50.0 mg/kg/injection, schedule: Q01DX010 (sc), vehicle: saline with Tween-80) 78 % of control; (dose: 100.0 mg/kg/injection, schedule: Q01DX010 (sc), vehicle: saline with Tween-80) 86 % of control; (dose: 200.0 mg/kg/injection, schedule: Q01DX010 (sc), vehicle: saline with Tween-80) 103 % of control; (dose: 400.0 mg/kg/injection, schedule: Q01DX010 (sc), vehicle: saline with Tween-80) 70 % of control.
For the compound `CCc1ncnc2cc(OCC3CO3)c(OC)cc12` (stereo unspecified), the T/C runs as follows: (dose: 25.0 mg/kg/injection, schedule: Q04DX003 (sc), vehicle: suspension in saline) 53 % of control; (dose: 50.0 mg/kg/injection, schedule: Q04DX003 (sc), vehicle: suspension in saline) 64 % of control; (dose: 200.0 mg/kg/injection, schedule: Q04DX003 (sc), vehicle: suspension in saline) 24 % of control.
`O=C(O)C1Cc2nc[nH]c2CN1CO` (stereo unspecified): the T/C reads like this: under setting [2], 74 % of control; under setting [3], 85 % of control; under setting [4], 41 % of control; under setting [5], 87 % of control.
On to `CC(Cc1ccc(O)cc1)NCC(O)c1ccc(O)c(O)c1` (stereo unspecified), for which the T/C under setting [2] is 62 % of control, the T/C under setting [3] is 98 % of control and the T/C under setting [4] is 61 % of control.
On to `Cc1ccc(NC(=O)Oc2ccc(Br)cc2Br)c([N+](=O)[O-])c1`, for which the T/C reads like this: under setting [2], 61 % of control; under setting [3], 98 % of control; under setting [4], 93 % of control; under setting [5], 68 % of control.
As to `O=C(O[Si](Cc1ccccc1)(Cc1ccccc1)Cc1ccccc1)N(CCCl)CCCl`, the T/C under setting [6] was 53 % of control and the T/C under setting [7] is 120 % of control.
`c1cnc2ncncc2n1`: the T/C is, setting by setting: (dose: 50.0 mg/kg/injection, schedule: Q04DX003 (sc), vehicle: saline with Tween-80) 150 % of control; under setting [6], 81 % of control.
On to `CN=S(=O)(OCCCCCOS(=O)(=NC)c1ccccc1)c1ccccc1` (stereo unspecified), for which the T/C is 36 % of control under setting [7]; 77 % of control (dose: 400.0 mg/kg/injection, schedule: Q04DX003 (sc), vehicle: saline with Tween-80); 57 % of control (dose: 800.0 mg/kg/injection, schedule: Q04DX003 (sc), vehicle: saline with Tween-80).
For `COc1cccc2c1C(=O)c1c(O)c3c(c(O)c1C2=O)CC(O)(/C(C)=N/NC(=O)CCCCC(=O)N/N=C(\C)C1(O)Cc2c(O)c4c(c(O)c2C(OC2CC(N)C(O)C(C)O2)C1)C(=O)c1c(OC)cccc1C4=O)CC3OC1CC(N)C(O)C(C)O1` (stereo unspecified), the T/C is, setting by setting: (dose: 12.5 mg/kg/injection, schedule: Q04DX003 (sc), vehicle: water) 28 % of control; (dose: 100.0 mg/kg/injection, schedule: Q04DX003 (sc), vehicle: water) 19 % of control.
As for `CS(=O)(=O)OCCCCOS(C)(=O)=O`, under “dose: 25.0 mg/kg/injection, schedule: Q01DX010 (sc), vehicle: saline with Tween-80”, the T/C is 41 % of control.
For the compound `O=C1C2(Cl)C3(Cl)C4(Cl)C(Cl)(Cl)C5(Cl)[C@]3(Cl)C1(Cl)[C@]5(Cl)C24Cl` (stereo partly specified), the T/C (dose: 37.5 mg/kg/injection, schedule: Q04DX003 (sc), vehicle: Klucel (hydroxypropylcellulose) (HPC)) is 118 % of control; the T/C (dose: 75.0 mg/kg/injection, schedule: Q04DX003 (sc), vehicle: Klucel (hydroxypropylcellulose) (HPC)) was 95 % of control; the T/C (dose: 150.0 mg/kg/injection, schedule: Q04DX003 (sc), vehicle: Klucel (hydroxypropylcellulose) (HPC)) was 78 % of control.
Regarding `O=C1C=C(C2OC(CO)C(O)C2O)C(=O)N1` (stereo unspecified), the T/C reads like this: (dose: 6.25 mg/kg/injection, schedule: Q01DX010 (sc), vehicle: saline) 37 % of control; (dose: 12.5 mg/kg/injection, schedule: Q01DX010 (sc), vehicle: saline) 46 % of control; (dose: 25.0 mg/kg/injection, schedule: Q01DX010 (sc), vehicle: saline) 66 % of control.
In the case of `CCC1(O)CC2CN(CCc3c([nH]c4ccccc34)C(C(=O)OC)(c3cc4c(cc3OC)N(C)C3C(O)(C(=O)NCCSSCCNC(=O)C5(O)C(O)C6(CC)C=CCN7CCC8(c9cc(C%10(C(=O)OC)CC%11CN(CCc%12c%10[nH]c%10ccccc%12%10)CC(O)(CC)C%11)c(OC)cc9N(C)C58)C76)C(O)C5(CC)C=CCN6CCC43C65)C2)C1` (stereo unspecified), the T/C is, setting by setting: (dose: 0.75 mg/kg/injection, schedule: Q04DX003 (sc), vehicle: saline) 46 % of control; (dose: 1.5 mg/kg/injection, schedule: Q04DX003 (sc), vehicle: saline) 23 % of control and 46 % of control; (dose: 1.5 mg/kg/injection, schedule: Q04DX003 (sc), vehicle: suspension in saline) 105 % of control; (dose: 6.0 mg/kg/injection, schedule: Q04DX003 (sc), vehicle: suspension in saline) 81 % of control; (dose: 12.0 mg/kg/injection, schedule: Q04DX003 (sc), vehicle: saline) 88 % of control; (dose: 12.0 mg/kg/injection, schedule: Q04DX003 (sc), vehicle: suspension in saline) 65 % of control.
Turning to `COc1ccc2c(c1)CCC(c1ccccc1)=C2c1ccc(OCCN2CCCC2)cc1`, the T/C is, setting by setting: (dose: 100.0 mg/kg/injection, schedule: Q04DX003 (sc), vehicle: Klucel (hydroxypropylcellulose) (HPC)) 116 % of control; (dose: 200.0 mg/kg/injection, schedule: Q04DX003 (sc), vehicle: Klucel (hydroxypropylcellulose) (HPC)) 85 % of control; (dose: 400.0 mg/kg/injection, schedule: Q04DX003 (sc), vehicle: Klucel (hydroxypropylcellulose) (HPC)) 57 % of control; (dose: 800.0 mg/kg/injection, schedule: Q04DX003 (sc), vehicle: Klucel (hydroxypropylcellulose) (HPC)) 101 % of control.
In the case of `N=C(N)Sc1cc(O)ccc1O`, the T/C (dose: 75.0 mg/kg/injection, schedule: Q04DX003 (sc), vehicle: saline) is 91 % of control and the T/C under setting [1] was 164 % of control.
